The subject of one test is velvetleaf (ABUTH). In words: Postemergence greenhouse trial, % visual injury on velvetleaf. The test is classed as in vivo, Abutilon theophrasti. The conditions noted are these: alone, 35 g/ha. On the procedure:
(§1) Seeds of the desired test plant species were planted in Sun Gro MetroMix® 306 planting mixture, which typically has a pH of 6.0 to 6.8 and an organic matter content of about 30 percent, in plastic pots with a surface area of 103.2 square centimeters (cm^2). When required to ensure good germination and healthy plants, a fungicide treatment and/or other chemical or physical treatment was applied. The plants were grown for 7-36 days (d) in a greenhouse with an approximate 14-hour (h) photoperiod which was maintained at about 23° C. during the day and 22° C. during the night. Nutrients and water were added on a regular basis and supplemental lighting was provided with overhead metal halide 1000-Watt lamps as necessary. The plants were employed for testing when they reached the second or third true leaf stage.
(§2) Weighed amounts of technical material were dissolved in a volume of 97:3 volume per volume (v/v) acetone/dimethyl sulfoxide (DMSO) to stock solutions. […] The concentrated stock solutions were diluted with an aqueous mixture of 1.5% v/v of Agri-dex crop oil concentrate to provide the appropriate application rates. Compound requirements are based upon a 12 milliliter (mL) application volume at a rate of 187 liters per hectare (L/ha). Stocks solutions of the safeners were prepared following the same procedure. Spray solutions of the safeners and experimental compound mixtures were prepared by adding the stock solutions to the appropriate amount of dilution solution to form a 12 mL spray solution in two-way combinations. Formulated compounds were applied to the plant material with an overhead Mandel track sprayer equipped with 8002E nozzles calibrated to deliver 187 L/ha over an application area of 0.503 square meters (m^2) at a spray height of 18 inches (43 centimeters (cm)) above average plant canopy. Control plants were sprayed in the same manner with the solvent blank. All herbicide application (component a) rates are in g ae/ha and all safener (component b) rates are in g ai/ha.
(§3) The treated plants and control plants were placed in a greenhouse as described above and watered by sub-irrigation to prevent wash-off of the test compounds. After 20-22 d, the condition of the test plants as compared with that of the control plants was determined visually and scored on a scale of 0 to 100 percent where 0 corresponds to no injury and 100 corresponds to complete kill. The condition of the test plants was compared with that of the control plants as determined visually and scored on a scale of 0 to 100 percent, where 0 corresponds to no injury and 100 corresponds to complete kill. Colby's equation was used to determine the herbicidal effects expected from the mixtures.
(§4) The safener cloquintocet-mexyl was combined with compound 1, compound 2, compound 4, compound 5, and compound 6, and applied to corn/maize (ZEAMX) and spring wheat (TRZAS) and the phytotoxicity of the herbicidal compositions was measured. In addition, the efficacy of the herbicidal composition on velvetleaf (ABUTH, Abutilon theophrasti), pigweed (AMARE, Amaranthus retroflexus), winter rape (BRSNW, Brassica napus), lambsquarters (CHEAL, Chenopodium album), thistle (CIRAR, Cirsium arvense), nutsedge (CYPES, Cyperus esculentus), poinsettia (EPHHL, Euphorbia heterophylla), wild buckwheat (POLCO, Polygonum convolvulus), giant foxtail (SETFA, Setaria faberi), and chickweed (STEME, Stellaria media) was evaluated.
The safener cloquintocet-mexyl was combined with compound 1, compound 2, compound 3, compound 7, compound 8, compound 9, compound 10, compound 11, compound 12, compound 13, compound 14, compound 15, compound 16, compound 17, compound 18, compound 19, and compound 20, and applied to spring wheat (TRZAS), winter wheat (TRZAW), and spring barley (HORVS) and the phytotoxicity of the herbicidal compositions was measured. […]

A further test relates to poinsettia (EPHHL). The experiment in a line: Postemergence greenhouse trial, % visual injury on poinsettia. The conditions noted are these: alone, 35 g/ha. The test is classed as in vivo, Euphorbia heterophylla. As to the method: as §1
Weighed amounts of technical material were dissolved in a volume of 97:3 volume per volume (v/v) acetone/dimethyl sulfoxide (DMSO) to stock solutions. […] The concentrated stock solutions were diluted with an aqueous mixture of 1.5% v/v of Agri-dex crop oil concentrate to provide the appropriate application rates. Compound requirements are based upon a 12 milliliter (mL) application volume at a rate of 187 liters per hectare (L/ha). Stocks solutions of the safeners were prepared following the same procedure. […]
as §3, with “Colby's equation was used to determine the herbicidal effects expected from the mixtures.” left out
as §4, with “evaluated. […]” for “evaluated.”

The next test deals with common sunflower (HELAN). In words: Postemergence greenhouse trial, % visual injury on common sunflower. The test is classed as in vivo, Helianthus annuus. As to the method:
as §1, §2, §3
The safener cloquintocet-acid and a number of agriculturally acceptable esters and salts (-mexyl, -dimethylammonium salt and -triethylammonium salt) were combined in varying ratios with compound 1 and applied to spring wheat (TRZAS), winter wheat (TRZAW), and spring barley (HORVS), and the phytotoxicity of the herbicidal compositions was measured. In addition, the efficacy of the herbicidal composition on pigweed (AMARE, Amaranthus retroflexus), nutsedge (CYPES, Cyperus esculentus), common sunflower (HELAN, Helianthus annuus), and common sorghum (SORVU, Sorghum vulgare).

In a further test the test system is giant foxtail (SETFA). In words: Postemergence greenhouse trial, % visual injury on giant foxtail. The test is classed as in vivo, Setaria faberi. Conditions: alone, 35 g/ha. As to the method:
as §1
Weighed amounts of technical material were dissolved in a volume of 97:3 volume per volume (v/v) acetone/dimethyl sulfoxide (DMSO) to stock solutions. […] The concentrated stock solutions were diluted with an aqueous mixture of 1.5% v/v of Agri-dex crop oil concentrate to provide the appropriate application rates. Compound requirements are based upon a 12 milliliter (mL) application volume at a rate of 187 liters per hectare (L/ha). […]
as §3, with “Colby's equation was used to determine the herbicidal effects expected from the mixtures.” left out
The safener cloquintocet-mexyl was combined with compound 1, compound 2, compound 4, compound 5, and compound 6, and applied to corn/maize (ZEAMX) and spring wheat (TRZAS) and the phytotoxicity of the herbicidal compositions was measured. […]

A further test concerns wild pansy (VIOTR). In words: Postemergence greenhouse trial, % visual injury on wild pansy. The test is classed as in vivo, Viola tricolor. As to the method:
as §1, §2
as §3, with “mixtures. […]” for “mixtures.”

For the next test, the system named is green foxtail (SETVI). The experiment in a line: Postemergence greenhouse trial, % visual injury on green foxtail. The test is classed as in vivo, Setaria viridis.

Turning to `CCCCCC(C)OC(=O)COc1ccc(Cl)c2cccnc12` (stereo not drawn) [CQC-m, cloquintocet-mexyl, reference compound], the “% visual injury, Ob” value worked out at 0% in the test with velvetleaf (ABUTH); 0% in the test with poinsettia (EPHHL); 0% in the test on giant foxtail (SETFA); 0% with wild pansy (VIOTR) (VIOTR, 4.375 g/ha, applied alone); 0% in the test with wild pansy (VIOTR) (VIOTR, 8.75 g/ha, applied alone); 0% in the test on wild pansy (VIOTR) (VIOTR, 17.5 g/ha, applied alone). In addition, the “% visual injury, Ob” value was 0% with wild pansy (VIOTR) (VIOTR, 35 g/ha, applied alone); 0% with wild pansy (VIOTR) (VIOTR, 70 g/ha, applied alone); 0% in the test with wild pansy (VIOTR) (VIOTR, compound 0 g/ha, CQC-m 4.375 g/ha); 0% in the test with wild pansy (VIOTR) (VIOTR, compound 0 g/ha, CQC-m 8.75 g/ha); 0% in the test with wild pansy (VIOTR) (VIOTR, compound 0 g/ha, CQC-m 17.5 g/ha); 0% with wild pansy (VIOTR) (VIOTR, compound 0 g/ha, CQC-m 35 g/ha). Also, the “% visual injury, Ob” value in the test on wild pansy (VIOTR) (VIOTR, compound 0 g/ha, CQC-m 70 g/ha) is recorded as 0%; in the test with wild pansy (VIOTR) (alone, 35 g/ha), 0%. For the same compound, the “% visual injury, observed (Ob)” value with common sunflower (HELAN) (safener alone 2.5 g/ha), with common sunflower (HELAN) (safener alone 5 g/ha), in the test with common sunflower (HELAN) (safener alone 10 g/ha) and in the test with common sunflower (HELAN) (safener alone 20 g/ha) was 0% in each case.

`Nc1c(F)c(-c2ccc3cc[nH]c3c2F)nc(C(=O)O)c1Cl` [compound 1]: the “% visual injury, observed (Ob)” value in the test on common sunflower (HELAN) (compound 1 alone 20 g/ha) worked out at 98%; with common sunflower (HELAN) (compound 1 alone 40 g/ha), 100%.

As for `Nc1c(F)c(-c2ccc3cc[nH]c3c2F)nc(C(=O)OCc2ccccc2)c1Cl` [compound 2], the “% visual injury, Ob” value in the test on velvetleaf (ABUTH) turned out to be 80%; in the test with poinsettia (EPHHL), 100%. Besides, the results for the “% visual injury, observed (Ob)” value in the test with green foxtail (SETVI) (compound 2 35 + CQC-m 0 g/ha), in the test on green foxtail (SETVI) (compound 2 70 + CQC-m 0 g/ha) and in the test with green foxtail (SETVI) (compound 2 140 + CQC-m 0 g/ha) were 100%, 97% and 98%, respectively.

For `Nc1cc(-c2ccc3cc[nH]c3c2F)nc(C(=O)O)c1Cl` [compound 15], the “% visual injury, Ob” value in the test on wild pansy (VIOTR) (VIOTR, compound 4.375 g/ha, CQC-m 0 g/ha) worked out at 0%; with wild pansy (VIOTR) (VIOTR, compound 8.75 g/ha, CQC-m 0 g/ha), 10%; in the test with wild pansy (VIOTR) (VIOTR, compound 17.5 g/ha, CQC-m 0 g/ha) it was 10%; in the test with wild pansy (VIOTR) (VIOTR, compound 35 g/ha, CQC-m 0 g/ha), 20%; in the test with wild pansy (VIOTR) (VIOTR, compound 70 g/ha, CQC-m 0 g/ha), 30%.

These data come from patent US9763445B2, “Safened herbicidal compositions comprising a pyridine carboxylic acid herbicide” (Dow AgroSciences, LLC, priority 2014, dated 2017).
